Data taken from patent publication US20140296153A1, “Oligodendrocyte Differentiation” (priority 2011, published 2014).

Key:
[1] = tested on: OPC; settings: cited from earlier work
[2] = tested on: SVZ cells; assay: Single cell calcium imaging (SCCI) of oligodendrocytic differentiation; type: cell-based, mouse; settings: AM251 1 μM co-treated with Hp 1 μM, 7 days, 8 coverslips
Description: To investigate the influence of Hp on oligodendrocytic differentiation, SVZ neurospheres were allowed to develop for 7 days Hp (100 nm, 1 μM), in serum free medium devoid of growth factor at 37° C.
To determine the functional differentiation pattern of SVZ cells, we analyzed the variations of intracellular calcium-free levels ([Ca^2+]i) in single cells following stimulation with 50 mM KCl, 100 μM histamine (Sigma-Aldrich, St. Louis, Mo. USA) and 0.1 U/ml thrombin (Sigma-Aldrich) stimulation. KCl depolarization causes an increase in [Ca^2+]i in neurons, whereas stimulation with histamine leads to an increase in [Ca^2+]i in stem/progenitor cells, while thrombin leads to an increase in [Ca^2+]i in oligodendrocytes. SVZ cultures were loaded for 40 minutes with 5 μM Fura—2/AM (Molecular Probes, Carlsbad, Calif., USA), 0.1% fatty acid-free BSA, and 0.02% pluronic acid F-127 (Molecular Probes) in Krebs solution (132 mM NaCl, 4 mM KCl, 1.4 mM MgCl2, 1 mM CaCl2, 6 mM glucose, 10 mM HEPES, pH 7.4), in an incubator with 5% CO2 and 95% atmospheric air at 37° C. After a 10-minute postloading period at room temperature (RT) in the same medium without Fura-2/AM and pluronic acid, to obtain a complete hydrolysis of the probe, the glass coverslip was mounted on an RC-20 chamber in a PH3 platform (Warner Instruments, Hamden, Conn., USA) on the stage of an inverted fluorescence microscope (Axiovert 200, Carl Zeiss). […] The variations of [Ca^2+]i were evaluated by quantifying the ratio of the fluorescence emitted at 510 nm following alternate excitation (750 msec) at 340 and 380 nm, using a Lambda DG4 apparatus (Sutter Instrument, Novato, Calif., USA) and a 510 nm band-pass filter (Carl Zeiss) before fluorescence acquisition with a x40 objective and a CoolSNAP digital camera (Roper Scientific, Trenton, N.J., USA). […] KCl, histamine, and thrombin peaks given by the normalized ratios of fluorescence at 340/380 nm, at the proper time periods, were used to calculate the ratios of the responses to histamine/KCl (Hist/KCl-neuronal-like profile) and to thrombin/histamine (Throm/Hist-oligodendrocytic-like profile).
Fluorescence images were recorded using an LSM 510 Meta confocal microscope or an Axioskop 2 Plus fluorescence microscope (both from Carl Zeiss). […] Percentages of TUNEL or BrdU immunoreactive cells in SVZ cell cultures were calculated from cell counts in five independent microscopic fields in each coverslip with a x40 objective (approximately 200 cells per field). […] For SCCl experiments, the percentage of oligodendrocytic-like responding cells (with a Thromb/Hist ratio above 1.3) was calculated on the basis of one microscopic field per coverslip, containing approximately 100 cells (magnification, ×40). […]

[3] = tested on: SVZ cells; assay: SVZ neurosphere forming assay (primary neurospheres); type: cell-based, mouse; settings: HGF 50 ng.ml^−1, 6 days, SFM with 5 ng/ml EGF and 2.5 ng/ml FGF-2
Description: Neurosphere forming and self-renewal assays were performed on SVZ cells seeded at clonal density, 2500 cells per well in 24-well cell culture plates in SFM containing 5 ng/ml EGF and 2.5 ng/ml FGF-2 and supplemented or not (control) with 1 μM Hp or 50 ng.ml^−1 hepatocyte growth factor (carrier free recombinant human HGF, R&D Systems, Lille, France). After 6 days, the numbers of primary neurospheres were determined. For self-renewal assay, neurospheres were collected, dissociated as single cells and seeded in SFM containing 5 ng/ml EGF and 2.5 ng/ml FGF-2 in 24 well plates. After 6 days, the number of secondary neurospheres was counted.
Fluorescence images were recorded using an LSM 510 Meta confocal microscope or an Axioskop 2 Plus fluorescence microscope (both from Carl Zeiss). In all experiments, measurements were performed in the border of SVZ neurospheres where migrating cells form a cell monolayer. For the SVZ neurosphere forming and self-renewal assays the experiments were replicated in five independent culture preparations and each experimental condition was assayed in four different coverslips. For the remaining experiments, each condition was assayed in three different coverslips, and except where otherwise specified, the experiments were replicated in three independent culture preparations. Percentages of TUNEL or BrdU immunoreactive cells in SVZ cell cultures were calculated from cell counts in five independent microscopic fields in each coverslip with a x40 objective (approximately 200 cells per field). Software used was Axiovision, release 4.6 (Carl Zeiss). For SCCl experiments, the percentage of oligodendrocytic-like responding cells (with a Thromb/Hist ratio above 1.3) was calculated on the basis of one microscopic field per coverslip, containing approximately 100 cells (magnification, ×40).
Neural stem-like cells are characterized in vitro by both their capacity to give rise to neurospheres and to self-renew when cultured in the presence of mitogens.

[4] = tested on: SVZ cells; assay: SVZ self-renewal assay (secondary neurospheres); type: cell-based, mouse; settings: primary neurospheres exposed to HGF 50 ng.ml^−1 for 6 days, replated without HGF
[5] = administered to rats; cited from earlier work
[6] = target: CB1R (Homo sapiens, UniProt P21554); settings: cited from earlier work
Sequence of CB1R (P21554 whole entry): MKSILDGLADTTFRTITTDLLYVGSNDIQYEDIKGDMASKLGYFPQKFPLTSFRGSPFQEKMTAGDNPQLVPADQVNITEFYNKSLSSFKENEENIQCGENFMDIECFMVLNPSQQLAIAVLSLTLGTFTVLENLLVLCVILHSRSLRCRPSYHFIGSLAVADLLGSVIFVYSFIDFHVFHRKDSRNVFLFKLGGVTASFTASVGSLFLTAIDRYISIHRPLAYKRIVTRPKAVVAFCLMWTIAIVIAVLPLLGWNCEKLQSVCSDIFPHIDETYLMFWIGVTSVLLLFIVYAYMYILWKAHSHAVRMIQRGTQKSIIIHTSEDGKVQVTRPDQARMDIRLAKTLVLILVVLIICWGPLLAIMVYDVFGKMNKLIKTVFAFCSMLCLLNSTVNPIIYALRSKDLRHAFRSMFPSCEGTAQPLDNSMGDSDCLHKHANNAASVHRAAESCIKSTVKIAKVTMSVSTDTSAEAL

COc1ccc(C(=O)c2c(C)n(CCN3CCOCC3)c3cc(I)ccc23)cc1 [AM630]
OPC differentiation into mature oligodendrocytes [1]: do not induce but impair

Cc1c(C(=O)NN2CCCCC2)nn(-c2ccc(Cl)cc2Cl)c1-c1ccc(I)cc1 [Am 251, reference compound]
cells responding with a Throm/Hist ratio above 1.3 (oligodendrocyte-like responding cells) [2]: 1.07±0.24%

Cc1c(C(=O)NN2CCCCC2)nn(-c2ccc(Cl)cc2Cl)c1-c1ccc(Cl)cc1 [rimonabant]
OPC differentiation into mature oligodendrocytes [1]: do not induce but impair

HGF: carrier free recombinant human HGF, used as a positive control
number of primary neurospheres (control 100%) [3]: 121.0±13.14% | number of secondary neurospheres (control 100%) [4]: 120.0±11.54%

PVNFKWLSH (listed as Homo sapiens) [SEQ ID 4, variant of Hp peptide]
periepididymal and visceral fat content compared to the control group [5]: reduced

RVDPVNFKFLSH (listed as Homo sapiens) [SEQ. ID. 3, N-terminally extended variant of Hp, Arg Val Asp Pro Val Asn Phe Lys Phe Leu Ser His]
activity at CB1R cannabinoid receptors [6]: function as agonists

VDPVNFKFLSH (listed as Homo sapiens) [SEQ. ID. 2, N-terminally extended variant of Hp, Val Asp Pro Val Asn Phe Lys Phe Leu Ser His]
activity at CB1R cannabinoid receptors [6]: function as agonists
